Usually IC50 stands for the point on the concentration scale where inhibition reaches its midpoint. High values mean lower potency, low ones higher potency.

In patent publication US20170152258A9, “Substituted Pyridopyrazines as Syk Inhibitors” (HUTCHISON MEDIPHARMA LIMITED, priority 2012, published 2017) one finds IC50 data, which are given here for 49 compounds.

One test has as its system RBL-2H3 cells. The test can be described thus: IgE-induced Beta-hexosaminidase secretion in RBL-2H3 cells. The format is cell-based. The conditions noted are these: DNP-BSA stimulation. The gist of the method:
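RBL-2H3 cells sensitized overnight with 0.5 ug/ml SPE-7 IgE, washed, preincubated with compound 20 min at 37° C, then stimulated with DNP-BSA (150 ng/mL stock) for 45 min. Released β-hexosaminidase measured on supernatant with 1 mM 4-nitrophenyl N-acetyl-β-D-glucosaminide, pH 4.5, 1.5 hr at 37° C; absorbance 405 nm after carbonate quench.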

In another test the target is Syk kinase (Homo sapiens, UniProt P43405). Description: SYK Enzymatic Assay (Z-LYTE Tyr 2 peptide). Format: biochemical. The conditions noted are these: 8 concentrations 1 μM down to 0.0003 μM. The essentials:
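Z-LYTE format using Tyr 2 peptide. After the 1 h room-temperature kinase reaction, development reagent was added for 1 h, then stop reagent. Fluorescence was read at 445 and 520 nm. Compounds were tested at 8 concentrations, 1 μM down to 0.0003 μM (1:3 dilutions).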

Where [1] appears, read: Rattus norvegicus, RBL-2H3, IgE-induced Beta-hexosaminidase secretion.
[2] abbreviates: IgE-induced Beta-hexosaminidase secretion.

“And” between values parts separate entries of the source, which are not always exact repeats. Equal entries are not always repeated.

`CNC(=O)N1CCO[C@H](COc2nc(-c3ccc(C(C)C)cc3)cc3nccnc23)C1` [Compound 176]: the IC50 in the test on RBL-2H3 cells (setting [1]) amounted to 67 nM; on Syk kinase, 59 nM.
Take `CC(=O)N1CCN(c2ccc(-c3cc4nccnc4c(O[C@@H]4CCCOC4)n3)cc2)CC1` [Compound 177]: the IC50 in the test with RBL-2H3 cells (setting [1]) was determined as 79 nM; on Syk kinase it was 91 nM.
On the same counts, the results for `CN(C)c1ccc(-c2cc3nccnc3c(OC[C@@H]3CN(S(N)(=O)=O)CCO3)n2)cc1` [Compound 178] are 63 nM and 19 nM.
Take `CC(C)c1ccc(-c2cc3nccnc3c(OC[C@@H]3CN(S(C)(=O)=O)CCO3)n2)cc1` [Compound 181]: the IC50 was 69 nM in the test on RBL-2H3 cells (setting [2]); 57 nM in the test with RBL-2H3 cells (setting [1]); 91 nM and 68 nM at Syk kinase.
As for `CN(C)c1ccc(-c2cc3nccnc3c(OC[C@@H]3CN(C(N)=O)CCO3)n2)cc1F` [Compound 183], the 50% inhibitory concentration (IC50) in the test on RBL-2H3 cells (setting [1]) is 95 nM; against Syk kinase, 76 nM.
Turning to `CNC(=O)N1CCO[C@H](COc2nc(-c3ccc(N(C)C)c(F)c3)cc3nccnc23)C1` [Compound 184], the IC50 in the test with RBL-2H3 cells (setting [1]) was found to be 62 nM; at Syk kinase it was 84 nM.
In the same order, the values of `CC(=O)N1CCO[C@H](COc2nc(-c3ccc4c(c3)CCCN4C)cc3nccnc23)C1` [Compound 185] are 64 nM and 40 nM.
On the same counts, the results for `CC(=O)N1CCO[C@H](COc2nc(-c3ccc(N4CCN(C)CC4)c(C)c3)cc3nccnc23)C1` [Compound 186] are 114 nM and 81 nM.
In the case of `Cc1cc(-c2cc3nccnc3c(OC[C@@H]3CN(S(N)(=O)=O)CCO3)n2)ccc1N(C)C` [Compound 188], the results for the IC50 in the test with RBL-2H3 cells (setting [1]) and against Syk kinase were 39 nM and 11 nM, respectively.
On to `CC(=O)N1CCO[C@H](COc2nc(-c3ccc4c(c3)CCN4C)cc3nccnc23)C1` [Compound 189], for which the IC50 in the test with RBL-2H3 cells (setting [1]) stood at 78 nM; against Syk kinase, 61 nM.
On the same counts, the results for `c1cnc2c(O[C@@H]3CCOC3)nc(-c3ccc(C4CCNCC4)cc3)cc2n1` [Compound 190] are 645 nM and 50 nM.
In the same order, the values of `Cc1cc(-c2cc3nccnc3c(O[C@@H]3CCOC3)n2)ccc1N1CCOCC1` [Compound 192] are 49 nM and 30 nM.
In the same order, the values of `Fc1cc(-c2cc3nccnc3c(O[C@@H]3CCOC3)n2)ccc1N1CCOCC1` [Compound 193] are 143 nM and 66 nM.
Turning to `CC(C)c1ccc(-c2cc3nccnc3c(OC[C@@H]3CN(C(=O)CO)CCO3)n2)cc1` [Compound 195], the IC50 with RBL-2H3 cells (setting [1]) was 129 nM; on Syk kinase, 63 nM.
Regarding `C[C@@H](O)C(=O)N1CCO[C@H](COc2nc(-c3ccc(N(C)C)cc3)cc3nccnc23)C1` [Compound 196], the IC50 in the test with RBL-2H3 cells (setting [1]) stood at 128 nM; on Syk kinase it was 67 nM.
In the same order, the values of `C[C@H](O)C(=O)N1CCO[C@H](COc2nc(-c3ccc(N(C)C)cc3)cc3nccnc23)C1` [Compound 197] are 81 nM and 85 nM.
On the same counts, the results for `CCC(=O)N1CCO[C@H](COc2nc(-c3ccc(N(C)C)cc3)cc3nccnc23)C1` [Compound 198] are 86 nM and 40 nM.
In the same order, the values of `CN(C)c1ccc(-c2cc3nccnc3c(OC[C@@H]3CN(C(=O)N4CCC4)CCO3)n2)cc1` [Compound 199, (S)-azetidin-1-yl(2-(((7-(4-(dimethylamino)phenyl)pyrido[3,4-b]pyrazin-5-yl)oxy)methyl)morpholino)methanone] are 211 nM and 88 nM.
In the case of `Cc1cc(-c2cc3nccnc3c(OC[C@@H]3CN(C(=O)[C@@H](C)O)CCO3)n2)ccc1N(C)C` [Compound 200], the IC50 in the test on RBL-2H3 cells (setting [1]) was 133 nM; on Syk kinase, 51 nM.
On the same counts, the results for `Cc1cc(-c2cc3nccnc3c(OC[C@@H]3CN(C(=O)[C@H](C)O)CCO3)n2)ccc1N(C)C` [Compound 201] are 100 nM and 49 nM.
On the same counts, the results for `CCC(=O)N1CCO[C@H](COc2nc(-c3ccc(N(C)C)c(C)c3)cc3nccnc23)C1` [Compound 202] are 90 nM and 26 nM.
`CS(=O)(=O)N1CCO[C@H](COc2nc(-c3ccc4[nH]ncc4c3)cc3nccnc23)C1` [Compound 203]: the results for the IC50 in the test on RBL-2H3 cells (setting [1]) and on Syk kinase were 107 nM and 60 nM, respectively.
For the compound `CC(=O)N1CCN(c2ccc(-c3cc4nccnc4c(O[C@@H]4CCOC4)n3)cc2C)CC1` [Compound 205], the IC50 amounted to 19 nM in the test with RBL-2H3 cells (setting [1]) and 27 nM against Syk kinase.
On the same counts, the results for `CN(C)c1ccc(-c2cc3nccnc3c(OC[C@@H]3CNC(=O)C3)n2)cc1` [Compound 206, (S)-4-(((7-(4-(dimethylamino)phenyl)pyrido[3,4-b]pyrazin-5-yl)oxy)methyl)pyrrolidin-2-one] are 52 nM and 72 nM.
Regarding `CN1CCCc2cc(-c3cc4nccnc4c(OC[C@@H]4CN(S(C)(=O)=O)CCO4)n3)ccc21` [Compound 207], the IC50 in the test on RBL-2H3 cells (setting [2]) is 14 nM; with RBL-2H3 cells (setting [1]), 8 nM; against Syk kinase, 11 nM.
For `CN1CCCc2cc(-c3cc4nccnc4c(OC[C@@H]4CN(S(N)(=O)=O)CCO4)n3)ccc21` [Compound 208], the results for the IC50 with RBL-2H3 cells (setting [1]) and against Syk kinase were 20 nM and 13 nM, respectively.
With `CN1CCCc2cc(-c3cc4nccnc4c(OC[C@@H]4CN(C(N)=O)CCO4)n3)ccc21` [Compound 209], the figures for the IC50 with RBL-2H3 cells (setting [1]) and on Syk kinase were 57 nM and 17 nM, respectively.
In the same order, the values of `Cc1cc(-c2cc3nccnc3c(O[C@@H]3CCOC3)n2)ccc1N1CCN(S(C)(=O)=O)CC1` [Compound 210] are 32 nM and 30 nM.
On the same counts, the results for `CNS(=O)(=O)N1CCO[C@H](COc2nc(-c3ccc(N(C)C)cc3)cc3nccnc23)C1` [Compound 211] are 78 nM and 58 nM.
In the case of `CC(C)(C#N)c1ccc(-c2cc3nccnc3c(OC[C@@H]3CN(S(C)(=O)=O)CCO3)n2)cc1` [Compound 212], the IC50 came to 30 nM in the test with RBL-2H3 cells (setting [1]) and 17 nM against Syk kinase.
On the same counts, the results for `CC(O)c1ccc(-c2cc3nccnc3c(OC[C@@H]3CN(S(C)(=O)=O)CCO3)n2)cc1` (stereo partly drawn) [Compound 213, 1-(4-(5-(((S)-4-(methylsulfonyl)morpholin-2-yl)methoxy)pyrido[3,4-b]pyrazin-7-yl)phenyl)ethanol] are 71 nM and 57 nM.
On to `CN1CCc2cc(-c3cc4nccnc4c(OC[C@@H]4CN(S(C)(=O)=O)CCO4)n3)ccc21` [Compound 214], for which the IC50 in the test on RBL-2H3 cells (setting [1]) came out at 20 nM; against Syk kinase it was 16 nM.
In the same order, the values of `CN1CCc2cc(-c3cc4nccnc4c(OC[C@@H]4CN(S(N)(=O)=O)CCO4)n3)ccc21` [Compound 215] are 40 nM and 19 nM.
In the same order, the values of `CN1CCc2cc(-c3cc4nccnc4c(OC[C@@H]4CN(C(N)=O)CCO4)n3)ccc21` [Compound 216] are 122 nM and 49 nM.
In the same order, the values of `c1cnc2c(O[C@@H]3CCOC3)nc(-c3ccc(C4CCOCC4)cc3)cc2n1` [Compound 217] are 68 nM and 45 nM.
Regarding `CN(C)c1ccc(-c2cc3nccnc3c(OC[C@@H]3CN(S(C)(=O)=O)CCO3)n2)cn1` [Compound 218], the IC50 worked out at 27 nM with RBL-2H3 cells (setting [1]) and 26 nM at Syk kinase.
`CNS(=O)(=O)N1CCO[C@H](COc2nc(-c3ccc(OC)c(OC)c3)cc3nccnc23)C1` [Compound 220]: the 50% inhibitory concentration (IC50) in the test with RBL-2H3 cells (setting [1]) was found to be 69 nM; against Syk kinase it was 86 nM.
Regarding `CNS(=O)(=O)N1CCO[C@H](COc2nc(-c3ccc(N(C)C)c(C)c3)cc3nccnc23)C1` [Compound 221], the IC50 with RBL-2H3 cells (setting [1]) was found to be 38 nM; on Syk kinase it was 44 nM.
Turning to `CCc1ccc(-c2cc3nccnc3c(OC[C@@H]3CN(C(=O)NC)CCO3)n2)cc1` [Compound 222], the results for the IC50 in the test with RBL-2H3 cells (setting [1]) and at Syk kinase were 105 nM and 84 nM, respectively.
For the compound `O=C1C[C@H](COc2nc(-c3ccc(N4CCOCC4)cc3)cc3nccnc23)CN1` [Compound 223], the half-maximal inhibitory concentration (IC50) in the test on RBL-2H3 cells (setting [1]) worked out at 121 nM; against Syk kinase, 57 nM.
For `Cc1cc(-c2cc3nccnc3c(OC[C@@H]3CNC(=O)C3)n2)ccc1N1CCOCC1` [Compound 224], the half-maximal inhibitory concentration (IC50) with RBL-2H3 cells (setting [1]) was determined as 103 nM; on Syk kinase, 48 nM.
On the same counts, the results for `CN1CCN(c2ccc(-c3cc4nccnc4c(OC[C@@H]4CNC(=O)C4)n3)cc2)CC1` [Compound 225] are 302 nM and 47 nM.
For `Cc1cc(-c2cc3nccnc3c(OC[C@@H]3CNC(=O)C3)n2)ccc1N(C)C` [Compound 226], the values for the 50% inhibitory concentration (IC50) in the test with RBL-2H3 cells (setting [1]) and at Syk kinase were 60 nM and 29 nM, respectively.
Turning to `OCCN1CCC(c2ccc(-c3cc4nccnc4c(O[C@@H]4CCOC4)n3)cc2)CC1` [Compound 227], the concentration for half-maximal inhibition (IC50) in the test on RBL-2H3 cells (setting [1]) was found to be 70 nM; against Syk kinase it was 37 nM.
In the same order, the values of `CC(C)(O)C1CCN(c2ccc(-c3cc4nccnc4c(O[C@@H]4CCOC4)n3)cc2)CC1` [Compound 228] are 39 nM and 28 nM.
In the same order, the values of `C[C@@H]1CN(c2ccc(-c3cc4nccnc4c(O[C@@H]4CCOC4)n3)cc2)C[C@H](C)O1` [Compound 229] are 94 nM and 49 nM.
On the same counts, the results for `CC(F)(F)c1ccc(-c2cc3nccnc3c(OC[C@@H]3CN(S(C)(=O)=O)CCO3)n2)cc1` [Compound 230] are 429 nM and 152 nM.
As to `CC(C)(C(N)=O)c1ccc(-c2cc3nccnc3c(OC[C@@H]3CN(S(C)(=O)=O)CCO3)n2)cc1` [Compound 231], the IC50 in the test with RBL-2H3 cells (setting [1]) came to 87 nM; on Syk kinase, 42 nM.
On the same counts, the results for `CN(C)c1ccc(-c2cc3nccnc3c(OC[C@H]3CNC(=O)C3)n2)cc1` [Compound 232] are 56 nM and 67 nM.
